Compound: Nc1ncnc2c1ncn2[C@@H]1O[C@H](COP(=O)(O)OP(=O)(O)OP(=O)(O)O)[C@@H](O)[C@H]1O [adenosine triphosphate]
Assay: pEC50 of ATP-induced change in protein thermal stability (2D-TPP)
Description: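 2D thermal proteome profiling in mechanically disrupted Jurkat crude lysate. Lysate was treated 10 min at room temperature with Na-ATP (0, 0.005, 0.05, 0.5, 2 mM), heated to 12 temperatures (42-63.9 °C) for 3 min, and soluble protein was quantified by TMT10 LC-MS/MS. pEC50 is the median over replicates of dose-response fits at the lowest temperature showing a fold change of at least 1.5 (FDR-controlled hits).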

Sequence of UniProt Q96TA2 (Q96TA2 whole entry): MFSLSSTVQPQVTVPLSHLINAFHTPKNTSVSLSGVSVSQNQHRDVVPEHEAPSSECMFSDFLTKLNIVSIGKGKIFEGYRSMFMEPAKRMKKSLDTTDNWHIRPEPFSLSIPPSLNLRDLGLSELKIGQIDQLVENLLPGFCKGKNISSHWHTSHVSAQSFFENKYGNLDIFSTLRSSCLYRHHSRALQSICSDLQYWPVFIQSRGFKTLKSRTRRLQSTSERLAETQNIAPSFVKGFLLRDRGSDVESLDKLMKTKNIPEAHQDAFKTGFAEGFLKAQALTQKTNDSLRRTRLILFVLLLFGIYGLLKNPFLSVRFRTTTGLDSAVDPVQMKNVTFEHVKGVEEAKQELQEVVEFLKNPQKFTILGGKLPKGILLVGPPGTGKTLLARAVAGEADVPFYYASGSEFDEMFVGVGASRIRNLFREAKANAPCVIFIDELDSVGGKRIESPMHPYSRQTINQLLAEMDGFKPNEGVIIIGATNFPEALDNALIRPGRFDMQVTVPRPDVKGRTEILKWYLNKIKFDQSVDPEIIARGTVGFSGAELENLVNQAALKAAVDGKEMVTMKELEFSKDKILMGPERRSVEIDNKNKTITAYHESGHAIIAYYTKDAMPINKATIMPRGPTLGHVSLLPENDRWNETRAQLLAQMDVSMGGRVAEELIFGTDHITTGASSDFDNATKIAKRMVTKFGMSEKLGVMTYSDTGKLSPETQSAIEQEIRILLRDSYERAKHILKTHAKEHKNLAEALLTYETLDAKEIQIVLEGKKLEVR
Sequence of UniProt Q9HC35 (Q9HC35 whole entry): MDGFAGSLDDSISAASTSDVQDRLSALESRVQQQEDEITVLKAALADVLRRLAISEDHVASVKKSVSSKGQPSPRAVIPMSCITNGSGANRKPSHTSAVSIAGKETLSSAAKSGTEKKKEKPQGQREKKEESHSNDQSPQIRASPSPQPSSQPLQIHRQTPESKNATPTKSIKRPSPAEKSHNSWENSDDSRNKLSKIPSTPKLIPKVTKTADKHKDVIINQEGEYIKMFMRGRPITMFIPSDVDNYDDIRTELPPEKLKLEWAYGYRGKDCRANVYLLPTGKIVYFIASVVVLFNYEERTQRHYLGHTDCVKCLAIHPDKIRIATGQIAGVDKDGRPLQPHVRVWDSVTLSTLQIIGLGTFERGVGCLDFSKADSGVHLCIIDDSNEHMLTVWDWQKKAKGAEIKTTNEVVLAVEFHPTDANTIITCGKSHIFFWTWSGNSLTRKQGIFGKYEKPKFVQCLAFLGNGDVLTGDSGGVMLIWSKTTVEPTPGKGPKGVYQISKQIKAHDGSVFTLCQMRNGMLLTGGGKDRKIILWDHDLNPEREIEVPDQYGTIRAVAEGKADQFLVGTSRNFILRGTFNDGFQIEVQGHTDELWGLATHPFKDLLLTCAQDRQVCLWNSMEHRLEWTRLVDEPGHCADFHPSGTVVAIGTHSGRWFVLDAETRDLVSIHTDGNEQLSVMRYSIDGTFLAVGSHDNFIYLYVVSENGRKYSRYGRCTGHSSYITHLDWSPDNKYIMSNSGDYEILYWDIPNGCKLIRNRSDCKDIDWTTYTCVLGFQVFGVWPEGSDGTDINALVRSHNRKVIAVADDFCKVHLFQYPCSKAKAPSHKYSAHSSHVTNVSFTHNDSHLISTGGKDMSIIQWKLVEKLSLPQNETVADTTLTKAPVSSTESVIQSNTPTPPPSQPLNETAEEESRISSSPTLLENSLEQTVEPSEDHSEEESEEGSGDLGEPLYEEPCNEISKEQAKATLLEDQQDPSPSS
Sequence of UniProt P85037 (P85037 whole entry): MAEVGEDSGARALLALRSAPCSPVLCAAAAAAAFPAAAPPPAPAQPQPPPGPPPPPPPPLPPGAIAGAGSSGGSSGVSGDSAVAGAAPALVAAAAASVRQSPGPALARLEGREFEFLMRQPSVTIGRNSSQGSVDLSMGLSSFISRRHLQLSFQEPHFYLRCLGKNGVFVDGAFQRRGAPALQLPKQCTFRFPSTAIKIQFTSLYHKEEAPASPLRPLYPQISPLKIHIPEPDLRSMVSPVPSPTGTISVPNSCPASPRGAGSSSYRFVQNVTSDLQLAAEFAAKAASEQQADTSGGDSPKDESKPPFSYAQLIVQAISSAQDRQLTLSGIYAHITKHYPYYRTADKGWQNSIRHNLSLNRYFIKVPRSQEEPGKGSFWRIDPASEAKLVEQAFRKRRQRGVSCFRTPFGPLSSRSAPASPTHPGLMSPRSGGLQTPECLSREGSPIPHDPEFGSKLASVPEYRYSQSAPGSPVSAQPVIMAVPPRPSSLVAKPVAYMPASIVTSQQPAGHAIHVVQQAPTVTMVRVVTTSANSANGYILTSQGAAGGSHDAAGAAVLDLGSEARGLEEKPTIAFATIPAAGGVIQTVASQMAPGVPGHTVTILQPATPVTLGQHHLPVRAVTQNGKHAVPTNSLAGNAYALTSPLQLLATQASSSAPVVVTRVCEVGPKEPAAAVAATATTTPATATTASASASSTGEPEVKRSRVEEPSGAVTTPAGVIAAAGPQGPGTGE
Sequence of UniProt P60842 (P60842 whole entry): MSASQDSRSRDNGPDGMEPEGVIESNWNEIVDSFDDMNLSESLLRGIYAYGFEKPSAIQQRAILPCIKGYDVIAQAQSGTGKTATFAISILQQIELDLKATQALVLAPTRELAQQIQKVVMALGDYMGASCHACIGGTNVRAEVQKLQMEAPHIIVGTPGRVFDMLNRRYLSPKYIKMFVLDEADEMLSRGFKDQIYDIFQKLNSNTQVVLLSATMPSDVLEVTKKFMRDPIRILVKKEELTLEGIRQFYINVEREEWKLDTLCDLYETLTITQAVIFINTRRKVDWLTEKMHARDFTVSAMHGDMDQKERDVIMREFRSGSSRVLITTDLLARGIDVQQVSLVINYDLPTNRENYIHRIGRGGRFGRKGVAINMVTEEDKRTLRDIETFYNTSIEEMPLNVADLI
Sequence of UniProt Q9HCE1 (Q9HCE1 whole entry): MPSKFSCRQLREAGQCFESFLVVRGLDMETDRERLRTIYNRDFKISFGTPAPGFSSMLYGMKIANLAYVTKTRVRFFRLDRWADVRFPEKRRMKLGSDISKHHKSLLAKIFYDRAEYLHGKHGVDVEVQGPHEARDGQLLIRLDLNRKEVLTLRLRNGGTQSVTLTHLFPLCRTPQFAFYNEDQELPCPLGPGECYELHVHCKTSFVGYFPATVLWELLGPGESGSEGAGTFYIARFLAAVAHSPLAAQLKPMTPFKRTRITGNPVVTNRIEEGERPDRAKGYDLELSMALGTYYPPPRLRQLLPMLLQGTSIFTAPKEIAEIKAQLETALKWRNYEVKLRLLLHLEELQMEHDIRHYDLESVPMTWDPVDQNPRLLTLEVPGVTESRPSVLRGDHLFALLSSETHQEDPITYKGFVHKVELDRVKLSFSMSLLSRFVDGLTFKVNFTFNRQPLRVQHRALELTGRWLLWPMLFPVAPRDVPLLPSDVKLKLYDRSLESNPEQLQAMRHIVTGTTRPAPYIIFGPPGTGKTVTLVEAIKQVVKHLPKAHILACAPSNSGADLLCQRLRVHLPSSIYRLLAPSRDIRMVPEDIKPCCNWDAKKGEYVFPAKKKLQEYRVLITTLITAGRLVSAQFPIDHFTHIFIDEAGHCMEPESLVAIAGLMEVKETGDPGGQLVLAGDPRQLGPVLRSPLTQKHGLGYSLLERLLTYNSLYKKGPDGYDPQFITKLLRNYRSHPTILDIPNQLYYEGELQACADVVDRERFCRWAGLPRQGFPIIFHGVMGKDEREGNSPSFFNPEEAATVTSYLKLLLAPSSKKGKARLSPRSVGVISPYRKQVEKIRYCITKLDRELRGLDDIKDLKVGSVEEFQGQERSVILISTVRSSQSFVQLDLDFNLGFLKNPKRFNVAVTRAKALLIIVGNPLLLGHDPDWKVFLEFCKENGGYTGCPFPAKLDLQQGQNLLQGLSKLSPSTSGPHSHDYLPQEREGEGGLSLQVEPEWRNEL
Sequence of UniProt Q9UH65 (Q9UH65 whole entry): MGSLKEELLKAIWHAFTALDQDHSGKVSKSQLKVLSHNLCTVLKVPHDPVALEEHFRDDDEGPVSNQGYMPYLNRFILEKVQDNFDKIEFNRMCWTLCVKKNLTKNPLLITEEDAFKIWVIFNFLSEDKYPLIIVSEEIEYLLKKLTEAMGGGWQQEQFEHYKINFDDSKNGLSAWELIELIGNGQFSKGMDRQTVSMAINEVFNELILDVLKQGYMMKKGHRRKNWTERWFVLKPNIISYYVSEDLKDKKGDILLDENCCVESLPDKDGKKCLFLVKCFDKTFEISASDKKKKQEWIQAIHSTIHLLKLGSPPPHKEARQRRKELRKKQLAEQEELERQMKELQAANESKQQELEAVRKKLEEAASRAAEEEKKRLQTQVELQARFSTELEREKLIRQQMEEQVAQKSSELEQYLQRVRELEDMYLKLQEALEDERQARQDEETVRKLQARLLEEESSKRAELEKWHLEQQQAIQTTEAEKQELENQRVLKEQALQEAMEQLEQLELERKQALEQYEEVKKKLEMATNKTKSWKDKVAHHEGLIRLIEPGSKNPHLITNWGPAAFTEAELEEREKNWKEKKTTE
Sequence of UniProt Q0VDF9 (Q0VDF9 whole entry): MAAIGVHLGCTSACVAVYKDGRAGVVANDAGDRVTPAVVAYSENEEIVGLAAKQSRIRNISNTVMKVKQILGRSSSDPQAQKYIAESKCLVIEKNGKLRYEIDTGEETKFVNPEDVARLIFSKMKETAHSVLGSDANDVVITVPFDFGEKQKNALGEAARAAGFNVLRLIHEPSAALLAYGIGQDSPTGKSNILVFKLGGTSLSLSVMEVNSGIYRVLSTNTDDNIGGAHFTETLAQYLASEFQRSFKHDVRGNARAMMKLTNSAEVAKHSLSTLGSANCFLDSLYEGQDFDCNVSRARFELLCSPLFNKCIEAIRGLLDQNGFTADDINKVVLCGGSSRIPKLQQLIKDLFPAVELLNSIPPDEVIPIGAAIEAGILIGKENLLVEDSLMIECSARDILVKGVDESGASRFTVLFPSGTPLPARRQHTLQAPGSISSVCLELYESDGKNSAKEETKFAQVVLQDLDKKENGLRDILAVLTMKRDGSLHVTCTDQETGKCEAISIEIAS

Target | pEC50
KIF1B (effect direction: stabilized) (UniProt O60333) | 3.68
ADRM1 (effect direction: stabilized) (UniProt Q16186) | 4.04
ACTR1B (effect direction: stabilized) (UniProt P42025) | 4.23
UniProt P0C0S8 (effect direction: stabilized) | 2.92
UniProt Q9Y2H1 (effect direction: stabilized) | 3.71
DDX11L8 (effect direction: stabilized) (UniProt A8MPP1) | 3.15
ACSL1 (effect direction: stabilized) (UniProt P33121) | 3.63
UniProt Q9BQ75 (effect direction: stabilized) | < 2.7
PMVK (effect direction: stabilized) (UniProt Q15126) | 3.58
SNX6 (effect direction: stabilized) (UniProt Q9UNH7) | < 2.7
RPL14 (effect direction: destabilized) (UniProt P50914) | 3.99
PRCP (effect direction: stabilized) (UniProt P42785) | 2.94
SHKBP1 (effect direction: stabilized) (UniProt Q8TBC3) | 2.83
UniProt Q63HN8 (effect direction: stabilized) | 3
SPN (effect direction: destabilized) (UniProt P16150) | 3.88
ABCC1 (effect direction: stabilized) (UniProt P33527) | 3.46
UniProt Q9Y2K2 (effect direction: stabilized) | 3.43
UniProt Q96BW9 (effect direction: stabilized) | 3.16
YME1L1 (effect direction: stabilized) (UniProt Q96TA2) | 3.54
MCM5 (effect direction: stabilized) (UniProt P33992) | 3.59
CS (effect direction: stabilized) (UniProt O75390) | < 2.7
ALDH5A1 (effect direction: stabilized) (UniProt P51649) | 3.06
PEPD (effect direction: destabilized) (UniProt P12955) | < 2.7
RNASEH2C (effect direction: stabilized) (UniProt Q8TDP1) | 2.76

Target | pEC50
UniProt P62269 (effect direction: destabilized) | < 2.7
MTHFD2 (effect direction: stabilized) (UniProt P13995) | 3.15
FARSA (effect direction: stabilized) (UniProt Q9Y285) | 3.47
UniProt O43598 (effect direction: stabilized) | 3.25
RACGAP1 (effect direction: stabilized) (UniProt Q9H0H5) | 3.69
UniProt P24928 (effect direction: destabilized) | 3.32
PITRM1 (effect direction: stabilized) (UniProt Q5JRX3) | 3.09
WRN (effect direction: stabilized) (UniProt Q14191) | 4.09
MAGED2 (effect direction: destabilized) (UniProt Q9UNF1) | 3.7
AHSA1 (effect direction: stabilized) (UniProt O95433) | < 2.7
CPSF2 (effect direction: stabilized) (UniProt Q9P2I0) | < 2.7
CCT5 (effect direction: stabilized) (UniProt P48643) | 3.02
PDCD10 (effect direction: stabilized) (UniProt Q9BUL8) | 3.17
KLC1 (effect direction: stabilized) (UniProt Q07866) | 3.95
PHACTR4 (effect direction: stabilized) (UniProt Q8IZ21) | 4.03
UniProt O60524 (effect direction: destabilized) | 3.06
UniProt P60842 (effect direction: stabilized) | 3.47
SLC12A9 (effect direction: stabilized) (UniProt Q9BXP2) | 3.94
MTHFSD (effect direction: stabilized) (UniProt Q2M296) | 3.62
FOXK1 (effect direction: stabilized) (UniProt P85037) | 3.36
UniProt P62318 (effect direction: destabilized) | < 2.7
TMEM173 (effect direction: stabilized) (UniProt Q86WV6) | 3.26
NAP1L4 (effect direction: stabilized) (UniProt Q99733) | < 2.7
UniProt P68400 (effect direction: stabilized) | 4.09

Target | pEC50
CTSD (effect direction: stabilized) (UniProt P07339) | 3.11
SLC12A2 (effect direction: stabilized) (UniProt P55011) | 3.44
PSMD8 (effect direction: stabilized) (UniProt P48556) | 4.12
PSMD7 (effect direction: stabilized) (UniProt P51665) | 4.16
UniProt P83731 (effect direction: destabilized) | 3.11
DARS2 (effect direction: stabilized) (UniProt Q6PI48) | 4.12
SF3B3 (effect direction: stabilized) (UniProt Q15393) | < 2.7
RAB3GAP2 (effect direction: stabilized) (UniProt Q9H2M9) | 5.16
CTSB (effect direction: stabilized) (UniProt P07858) | 3.34
FN3KRP (effect direction: stabilized) (UniProt Q9HA64) | 4.17
UniProt P62263 (effect direction: destabilized) | 2.97
LRWD1 (effect direction: stabilized) (UniProt Q9UFC0) | 3.85
UniProt P84095 (effect direction: destabilized) | 3.01
TTC37 (effect direction: stabilized) (UniProt Q6PGP7) | 3.19
PI4K2A (effect direction: stabilized) (UniProt Q9BTU6) | 3.54
DHX16 (effect direction: stabilized) (UniProt O60231) | 4.14
EML4 (effect direction: destabilized) (UniProt Q9HC35) | 2.93
ALDH18A1 (effect direction: stabilized) (UniProt P54886) | 3.12
GTF2I (effect direction: stabilized) (UniProt P78347) | 3.28
UniProt P61254 (effect direction: destabilized) | < 2.7
ADK (effect direction: stabilized) (UniProt P55263) | 3.82
EXOC2 (effect direction: stabilized) (UniProt Q96KP1) | 3
PEX6 (effect direction: stabilized) (UniProt Q13608) | 4.03
XPO1 (effect direction: stabilized) (UniProt O14980) | < 2.7

Target | pEC50
SWAP70 (effect direction: stabilized) (UniProt Q9UH65) | < 2.7
FKBP4 (effect direction: stabilized) (UniProt Q02790) | < 2.7
ACTR10 (effect direction: destabilized) (UniProt Q9NZ32) | < 2.7
CLCN7 (effect direction: stabilized) (UniProt P51798) | 3.4
NPM1 (effect direction: stabilized) (UniProt P06748) | 2.88
HNRNPR (effect direction: stabilized) (UniProt O43390) | 3.04
PM20D2 (effect direction: stabilized) (UniProt Q8IYS1) | 2.86
MOV10 (effect direction: destabilized) (UniProt Q9HCE1) | 3.24
CDIPT (effect direction: destabilized) (UniProt O14735) | 2.77
PPM1F (effect direction: stabilized) (UniProt P49593) | < 2.7
CLYBL (effect direction: destabilized) (UniProt Q8N0X4) | 2.92
HSPA14 (effect direction: stabilized) (UniProt Q0VDF9) | 2.8
TTC33 (effect direction: stabilized) (UniProt Q6PID6) | 2.91
PAF1 (effect direction: stabilized) (UniProt Q8N7H5) | 3.1
MARS2 (effect direction: stabilized) (UniProt Q96GW9) | 3.24
UniProt P62191 (effect direction: stabilized) | 4.55
DCPS (effect direction: stabilized) (UniProt Q96C86) | < 2.7
GRAMD4 (effect direction: stabilized) (UniProt Q6IC98) | 3.13
NANP (effect direction: destabilized) (UniProt Q8TBE9) | 3.08
GLOD4 (effect direction: stabilized) (UniProt Q9HC38) | < 2.7
UniProt Q96C57 (effect direction: destabilized) | 4.35

Source: the supplement of paper PMC6411743
